Where a SMILES comes first, the peptide text is derived from it. Bridges are numbered along the chain shown (N, C = ends). Roman numbers before positions name the chains, in order. [ ]: non-standard residue; d: D form. The star is where a group is joined. 5TAMRA = CN(C)c1ccc2c(c1)Oc1cc(N(C)C)ccc1C21OC(=O)c2cc(C(=O)*)ccc21; Cha = N[C@@H](CC1CCCCC1)C(=O)O
Experiment: Drug localization in mitochondria of human HeLa cells at EC50 incubated for 3 hrs by fluorescence based assay
Type: ADME

| Compound | Drug uptake [%] |
| --- | --- |
| CC(=O)N[C@@H](CC(C)C)C(=O)N[C@H]1CSSC[C@@H](C(=O)N[C@@H](CCCNC(=N)N)C(N)=O)NC(=O)[C@H](CC2CCCCC2)NC(=O)[C@H](CCCNC(=N)N)NC(=O)[C@H](CCCNC(=N)N)NC(=O)[C@H](CC(C)C)NC(=O)[C@H](CC(C)C)NC(=O)[C@H](CCCNC(=N)N)NC(=O)[C@@H](NC(=O)[C@H](CC(C)C)NC(=O)c2ccc3c(c2)C(=O)OC32c3ccc(N(C)C)cc3Oc3cc(N(C)C)ccc32)CSSC[C@@H](C(=O)N[C@@H](CCCNC(=N)N)C(N)=O)NC(=O)[C@H](CC2CCCCC2)NC(=O)[C@H](CCCNC(=N)N)NC(=O)[C@H](CCCNC(=N)N)NC(=O)[C@H](CC(C)C)NC(=O)[C@H](CC(C)C)NC(=O)[C@H](CCCNC(=N)N)NC1=O (I: Ac-LCRLLRR[Cha]CR-NH2 / II: 5TAMRA-LCRLLRR[Cha]CR-NH2; disulfide I:2-II:9, I:9-II:2) | 53 |
| CC(=O)N[C@@H](CC(C)C)C(=O)N[C@H]1CSSC[C@@H](C(=O)N[C@@H](CCCNC(=N)N)C(N)=O)NC(=O)[C@H](CC(C)C)NC(=O)[C@H](CCCNC(=N)N)NC(=O)[C@H](CCCNC(=N)N)NC(=O)[C@H](CC2CCCCC2)NC(=O)[C@H](CC(C)C)NC(=O)[C@H](CCCNC(=N)N)NC(=O)[C@@H](NC(=O)[C@H](CC(C)C)NC(=O)c2ccc3c(c2)C(=O)OC32c3ccc(N(C)C)cc3Oc3cc(N(C)C)ccc32)CSSC[C@@H](C(=O)N[C@@H](CCCNC(=N)N)C(N)=O)NC(=O)[C@H](CC(C)C)NC(=O)[C@H](CCCNC(=N)N)NC(=O)[C@H](CCCNC(=N)N)NC(=O)[C@H](CC2CCCCC2)NC(=O)[C@H](CC(C)C)NC(=O)[C@H](CCCNC(=N)N)NC1=O (I: Ac-LCRL[Cha]RRLCR-NH2 / II: 5TAMRA-LCRL[Cha]RRLCR-NH2; disulfide I:2-II:9, I:9-II:2) | 53 |
| CC(=O)N[C@@H](CC(C)C)C(=O)N[C@H]1CSSC[C@@H](C(=O)N[C@@H](CCCNC(=N)N)C(N)=O)NC(=O)[C@H](CC2CCCCC2)NC(=O)[C@H](CCCNC(=N)N)NC(=O)[C@H](CCCNC(=N)N)NC(=O)[C@H](CC2CCCCC2)NC(=O)[C@H](CC(C)C)NC(=O)[C@H](CCCNC(=N)N)NC(=O)[C@@H](NC(=O)[C@H](CC(C)C)NC(=O)c2ccc3c(c2)C(=O)OC32c3ccc(N(C)C)cc3Oc3cc(N(C)C)ccc32)CSSC[C@@H](C(=O)N[C@@H](CCCNC(=N)N)C(N)=O)NC(=O)[C@H](CC2CCCCC2)NC(=O)[C@H](CCCNC(=N)N)NC(=O)[C@H](CCCNC(=N)N)NC(=O)[C@H](CC2CCCCC2)NC(=O)[C@H](CC(C)C)NC(=O)[C@H](CCCNC(=N)N)NC1=O (I: Ac-LCRL[Cha]RR[Cha]CR-NH2 / II: 5TAMRA-LCRL[Cha]RR[Cha]CR-NH2; disulfide I:2-II:9, I:9-II:2) | 53 |
| CC(=O)N[C@@H](CC(C)C)C(=O)N[C@H]1CSSC[C@@H](C(=O)N[C@@H](CCCNC(=N)N)C(N)=O)NC(=O)[C@H](CC(C)C)NC(=O)[C@H](CCCNC(=N)N)NC(=O)[C@H](CCCNC(=N)N)NC(=O)[C@H](CC(C)C)NC(=O)[C@H](CC2CCCCC2)NC(=O)[C@H](CCCNC(=N)N)NC(=O)[C@@H](NC(=O)[C@H](CC(C)C)NC(=O)c2ccc3c(c2)C(=O)OC32c3ccc(N(C)C)cc3Oc3cc(N(C)C)ccc32)CSSC[C@@H](C(=O)N[C@@H](CCCNC(=N)N)C(N)=O)NC(=O)[C@H](CC(C)C)NC(=O)[C@H](CCCNC(=N)N)NC(=O)[C@H](CCCNC(=N)N)NC(=O)[C@H](CC(C)C)NC(=O)[C@H](CC2CCCCC2)NC(=O)[C@H](CCCNC(=N)N)NC1=O (I: Ac-LCR[Cha]LRRLCR-NH2 / II: 5TAMRA-LCR[Cha]LRRLCR-NH2; disulfide I:2-II:9, I:9-II:2) | 53 |
| CC(=O)N[C@@H](CC(C)C)C(=O)N[C@H]1CSSC[C@@H](C(=O)N[C@@H](CCCNC(=N)N)C(N)=O)NC(=O)[C@H](CC2CCCCC2)NC(=O)[C@H](CCCNC(=N)N)NC(=O)[C@H](CCCNC(=N)N)NC(=O)[C@H](CC(C)C)NC(=O)[C@H](CC2CCCCC2)NC(=O)[C@H](CCCNC(=N)N)NC(=O)[C@@H](NC(=O)[C@H](CC(C)C)NC(=O)c2ccc3c(c2)C(=O)OC32c3ccc(N(C)C)cc3Oc3cc(N(C)C)ccc32)CSSC[C@@H](C(=O)N[C@@H](CCCNC(=N)N)C(N)=O)NC(=O)[C@H](CC2CCCCC2)NC(=O)[C@H](CCCNC(=N)N)NC(=O)[C@H](CCCNC(=N)N)NC(=O)[C@H](CC(C)C)NC(=O)[C@H](CC2CCCCC2)NC(=O)[C@H](CCCNC(=N)N)NC1=O (I: Ac-LCR[Cha]LRR[Cha]CR-NH2 / II: 5TAMRA-LCR[Cha]LRR[Cha]CR-NH2; disulfide I:2-II:9, I:9-II:2) | 53 |
| CC(=O)N[C@@H](CC(C)C)C(=O)N[C@H]1CSSC[C@@H](C(=O)N[C@@H](CCCNC(=N)N)C(N)=O)NC(=O)[C@H](CC(C)C)NC(=O)[C@H](CCCNC(=N)N)NC(=O)[C@H](CCCNC(=N)N)NC(=O)[C@H](CC2CCCCC2)NC(=O)[C@H](CC2CCCCC2)NC(=O)[C@H](CCCNC(=N)N)NC(=O)[C@@H](NC(=O)[C@H](CC(C)C)NC(=O)c2ccc3c(c2)C(=O)OC32c3ccc(N(C)C)cc3Oc3cc(N(C)C)ccc32)CSSC[C@@H](C(=O)N[C@@H](CCCNC(=N)N)C(N)=O)NC(=O)[C@H](CC(C)C)NC(=O)[C@H](CCCNC(=N)N)NC(=O)[C@H](CCCNC(=N)N)NC(=O)[C@H](CC2CCCCC2)NC(=O)[C@H](CC2CCCCC2)NC(=O)[C@H](CCCNC(=N)N)NC1=O (I: Ac-LCR[Cha][Cha]RRLCR-NH2 / II: 5TAMRA-LCR[Cha][Cha]RRLCR-NH2; disulfide I:2-II:9, I:9-II:2) | 53 |
| CC(=O)N[C@@H](CC(C)C)C(=O)N[C@H]1CSSC[C@@H](C(=O)N[C@@H](CCCNC(=N)N)C(N)=O)NC(=O)[C@H](CC2CCCCC2)NC(=O)[C@H](CCCNC(=N)N)NC(=O)[C@H](CCCNC(=N)N)NC(=O)[C@H](CC2CCCCC2)NC(=O)[C@H](CC2CCCCC2)NC(=O)[C@H](CCCNC(=N)N)NC(=O)[C@@H](NC(=O)[C@H](CC(C)C)NC(=O)c2ccc3c(c2)C(=O)OC32c3ccc(N(C)C)cc3Oc3cc(N(C)C)ccc32)CSSC[C@@H](C(=O)N[C@@H](CCCNC(=N)N)C(N)=O)NC(=O)[C@H](CC2CCCCC2)NC(=O)[C@H](CCCNC(=N)N)NC(=O)[C@H](CCCNC(=N)N)NC(=O)[C@H](CC2CCCCC2)NC(=O)[C@H](CC2CCCCC2)NC(=O)[C@H](CCCNC(=N)N)NC1=O (I: Ac-LCR[Cha][Cha]RR[Cha]CR-NH2 / II: 5TAMRA-LCR[Cha][Cha]RR[Cha]CR-NH2; disulfide I:2-II:9, I:9-II:2) | 53 |
| CC(=O)N[C@@H](CC1CCCCC1)C(=O)N[C@H]1CSSC[C@@H](C(=O)N[C@@H](CCCNC(=N)N)C(N)=O)NC(=O)[C@H](CC(C)C)NC(=O)[C@H](CCCNC(=N)N)NC(=O)[C@H](CCCNC(=N)N)NC(=O)[C@H](CC(C)C)NC(=O)[C@H](CC(C)C)NC(=O)[C@H](CCCNC(=N)N)NC(=O)[C@@H](NC(=O)[C@H](CC2CCCCC2)NC(=O)c2ccc3c(c2)C(=O)OC32c3ccc(N(C)C)cc3Oc3cc(N(C)C)ccc32)CSSC[C@@H](C(=O)N[C@@H](CCCNC(=N)N)C(N)=O)NC(=O)[C@H](CC(C)C)NC(=O)[C@H](CCCNC(=N)N)NC(=O)[C@H](CCCNC(=N)N)NC(=O)[C@H](CC(C)C)NC(=O)[C@H](CC(C)C)NC(=O)[C@H](CCCNC(=N)N)NC1=O (I: Ac-[Cha]CRLLRRLCR-NH2 / II: 5TAMRA-[Cha]CRLLRRLCR-NH2; disulfide I:2-II:9, I:9-II:2) | 53 |
| CC(=O)N[C@@H](CC1CCCCC1)C(=O)N[C@H]1CSSC[C@@H](C(=O)N[C@@H](CCCNC(=N)N)C(N)=O)NC(=O)[C@H](CC2CCCCC2)NC(=O)[C@H](CCCNC(=N)N)NC(=O)[C@H](CCCNC(=N)N)NC(=O)[C@H](CC(C)C)NC(=O)[C@H](CC(C)C)NC(=O)[C@H](CCCNC(=N)N)NC(=O)[C@@H](NC(=O)[C@H](CC2CCCCC2)NC(=O)c2ccc3c(c2)C(=O)OC32c3ccc(N(C)C)cc3Oc3cc(N(C)C)ccc32)CSSC[C@@H](C(=O)N[C@@H](CCCNC(=N)N)C(N)=O)NC(=O)[C@H](CC2CCCCC2)NC(=O)[C@H](CCCNC(=N)N)NC(=O)[C@H](CCCNC(=N)N)NC(=O)[C@H](CC(C)C)NC(=O)[C@H](CC(C)C)NC(=O)[C@H](CCCNC(=N)N)NC1=O (I: Ac-[Cha]CRLLRR[Cha]CR-NH2 / II: 5TAMRA-[Cha]CRLLRR[Cha]CR-NH2; disulfide I:2-II:9, I:9-II:2) | 53 |
| CC(=O)N[C@@H](CC1CCCCC1)C(=O)N[C@H]1CSSC[C@@H](C(=O)N[C@@H](CCCNC(=N)N)C(N)=O)NC(=O)[C@H](CC(C)C)NC(=O)[C@H](CCCNC(=N)N)NC(=O)[C@H](CCCNC(=N)N)NC(=O)[C@H](CC2CCCCC2)NC(=O)[C@H](CC(C)C)NC(=O)[C@H](CCCNC(=N)N)NC(=O)[C@@H](NC(=O)[C@H](CC2CCCCC2)NC(=O)c2ccc3c(c2)C(=O)OC32c3ccc(N(C)C)cc3Oc3cc(N(C)C)ccc32)CSSC[C@@H](C(=O)N[C@@H](CCCNC(=N)N)C(N)=O)NC(=O)[C@H](CC(C)C)NC(=O)[C@H](CCCNC(=N)N)NC(=O)[C@H](CCCNC(=N)N)NC(=O)[C@H](CC2CCCCC2)NC(=O)[C@H](CC(C)C)NC(=O)[C@H](CCCNC(=N)N)NC1=O (I: Ac-[Cha]CRL[Cha]RRLCR-NH2 / II: 5TAMRA-[Cha]CRL[Cha]RRLCR-NH2; disulfide I:2-II:9, I:9-II:2) | 53 |
| CC(=O)N[C@@H](CC1CCCCC1)C(=O)N[C@H]1CSSC[C@@H](C(=O)N[C@@H](CCCNC(=N)N)C(N)=O)NC(=O)[C@H](CC(C)C)NC(=O)[C@H](CCCNC(=N)N)NC(=O)[C@H](CCCNC(=N)N)NC(=O)[C@H](CC(C)C)NC(=O)[C@H](CC2CCCCC2)NC(=O)[C@H](CCCNC(=N)N)NC(=O)[C@@H](NC(=O)[C@H](CC2CCCCC2)NC(=O)c2ccc3c(c2)C(=O)OC32c3ccc(N(C)C)cc3Oc3cc(N(C)C)ccc32)CSSC[C@@H](C(=O)N[C@@H](CCCNC(=N)N)C(N)=O)NC(=O)[C@H](CC(C)C)NC(=O)[C@H](CCCNC(=N)N)NC(=O)[C@H](CCCNC(=N)N)NC(=O)[C@H](CC(C)C)NC(=O)[C@H](CC2CCCCC2)NC(=O)[C@H](CCCNC(=N)N)NC1=O (I: Ac-[Cha]CR[Cha]LRRLCR-NH2 / II: 5TAMRA-[Cha]CR[Cha]LRRLCR-NH2; disulfide I:2-II:9, I:9-II:2) | 53 |

From ChEMBL document CHEMBL5634162, “Cyclohexylalanine-Containing α-Helical Amphipathic Peptide Targets Cardiolipin, Rescuing Mitochondrial Dysfunction in Kidney Injury” (J Med Chem, 2024)
